The values that follow come from ChEMBL document CHEMBL4811297, “Low cytotoxic quinoline-4-carboxylic acids derived from vanillin precursors as potential human dihydroorotate dehydrogenase inhibitors” (Bioorg Med Chem Lett, 2021).

Structures are written as SMILES. pIC50: −log10 of the molar value.

Data set [1] can be described thus: Lipophilicity, log D of compound at pH 7.4 in octanol/phosphate buffer measured by shake flask method. It is filed as physicochemical.
Data set [2] addresses Dihydroorotate dehydrogenase (quinone), mitochondrial (Homo sapiens, UniProt Q02127). The experiment in a line: Inhibition of human DHODH.
The test system of data set [3] is HaCaT. The experiment in a line: Antiproliferative activity against human HaCaT cells assessed as inhibition of cell proliferation. Format: cell-based.

Chain of Dihydroorotate dehydrogenase (quinone), mitochondrial (Q02127 whole entry): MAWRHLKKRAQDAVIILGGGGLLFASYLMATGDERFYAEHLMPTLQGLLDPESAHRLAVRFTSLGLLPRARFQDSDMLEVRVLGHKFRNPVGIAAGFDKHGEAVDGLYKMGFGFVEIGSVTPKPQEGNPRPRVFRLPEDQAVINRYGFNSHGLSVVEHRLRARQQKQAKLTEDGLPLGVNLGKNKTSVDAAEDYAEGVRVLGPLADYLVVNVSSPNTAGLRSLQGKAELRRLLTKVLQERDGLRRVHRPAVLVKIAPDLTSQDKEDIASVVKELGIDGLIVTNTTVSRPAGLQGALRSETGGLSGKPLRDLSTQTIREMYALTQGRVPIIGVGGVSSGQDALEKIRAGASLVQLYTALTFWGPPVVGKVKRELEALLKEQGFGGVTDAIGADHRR

Usually logD stands for the decadic logarithm of the distribution of all forms, ionised or not, between an organic phase and buffer at a given pH. As usually defined, the pIC50 is the IC50 on a negative log10 scale, so that one unit is a factor of ten. `COc1cc(-c2cc(C(=O)O)c3ccccc3n2)ccc1OCC(=O)Nc1ccc(Cl)cc1` yielded a logD in data set [1] of 1.5. Also, the pIC50 in data set [2] was 6.30; in data set [3], less than 3.52.
`COc1cc(-c2cc(C(=O)O)c3ccccc3n2)ccc1OCC(=O)Nc1ccccc1Cl` gave a logD in data set [1] of 1.6. Also, the pIC50 is 5.89 in data set [2] and 3.68 in data set [3].
In the same order, the values of `COc1cc(-c2cc(C(=O)O)c3ccccc3n2)ccc1OCC(=O)Nc1cccc(Cl)c1` are 2.3, 6.30 and 3.72.
Turning to `COc1cc(-c2cc(C(=O)O)c3ccccc3n2)ccc1OCC(=O)NCc1ccco1`, the logD in data set [1] was -0.3. Besides, the values for the pIC50 in data set [2] and in data set [3] were 6.00 and less than 3.52, respectively.
In the same order, the values of `COc1cc(-c2cc(C(=O)O)c3ccccc3n2)ccc1OCC(=O)Nc1ccc(F)cc1` are 1.1, 5.80 and 3.54.
In the same order, the values of `COc1cc(-c2cc(C(=O)O)c3ccccc3n2)ccc1OCC(=O)Nc1ccc(C)cc1` are 1.2, 5.42 and less than 3.52.
As for `COc1cc(-c2cc(C(=O)O)c3ccccc3n2)ccc1OCC(=O)NCc1cccs1`, the logD in data set [1] amounted to 0. Also, the pIC50 in data set [2] is 5.51; in data set [3] it was less than 3.52.
In the same order, the values of `COc1cc(-c2cc(C(=O)O)c3ccccc3n2)ccc1OCC(=O)Nc1cccc(C(F)(F)F)c1` are 1.3, 6.30 and 3.80.
In data set [1], `COc1cc(-c2cc(C(=O)O)c3ccccc3n2)ccc1OCC(=O)Nc1ccc(C(F)(F)F)cc1` returned a logD of 1.6. Also, the values for the pIC50 in data set [2] and in data set [3] were 5.62 and 3.82, respectively.
For the compound `COc1cc(-c2cc(C(=O)O)c3ccccc3n2)ccc1OCC(=O)Nc1cccc(F)c1`, the logD in data set [1] came out at 1.6. Also, the results for the pIC50 in data set [2] and in data set [3] were 5.68 and 3.83, respectively.
`COc1cc(-c2cc(C(=O)O)c3ccccc3n2)ccc1OCC(=O)Nc1cccc(C)c1`: the logD in data set [1] was found to be 1.5. Further, the pIC50 in data set [2] is 5.72; in data set [3] it was 3.65.
As for `COc1cc(-c2cc(C(=O)O)c3ccccc3n2)ccc1OCC(=O)Nc1ccccc1C(F)(F)F`, the logD in data set [1] came out at 1.3. Also, the pIC50 in data set [2] was 6.52; in data set [3], 3.99.
In the same order, the values of `COc1cc(-c2cc(C(=O)O)c3ccccc3n2)ccc1OCC(=O)Nc1ccccc1F` are 0.9, 6.30 and 3.79.
In the same order, the values of `COc1cc(-c2cc(C(=O)O)c3ccccc3n2)ccc1OCC(=O)NC12CC3CC(CC(C3)C1)C2` are 1, 5.77 and 3.74.
In the same order, the values of `COc1cc(-c2cc(C(=O)O)c3ccccc3n2)ccc1OCC(=O)Nc1ccccc1` are 0.7, 5.41 and less than 3.52.
As for `COc1cc(-c2cc(C(=O)O)c3ccccc3n2)ccc1OCC(=O)Nc1ccccc1C`, the logD in data set [1] was 0.8. For the same compound, the pIC50 in data set [2] was 5.23; in data set [3] it was 3.64.
For `CCCCCCNC(=O)COc1ccc(-c2cc(C(=O)O)c3ccccc3n2)cc1OC`, the logD in data set [1] was found to be 1. The pIC50 in data set [2] is 5.57; in data set [3], less than 3.52.
In data set [1], `COc1cc(-c2cc(C(=O)O)c3ccccc3n2)ccc1OCC(=O)NC1CCCCC1` displayed a logD of 0.8. The pIC50 in data set [2] was 5.77; in data set [3], less than 3.52.
In the same order, the values of `COc1cc(-c2cc(C(=O)O)c3ccccc3n2)ccc1OCC(=O)NCc1cccnc1` are -0.8, 6.15 and less than 3.52.
Regarding `COc1cc(-c2cc(C(=O)O)c3ccccc3n2)ccc1OCC(=O)NCc1ccccc1`, the logD in data set [1] came out at 0.4. Besides, the pIC50 in data set [2] was 5.43; in data set [3], less than 3.52.
